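1) Cells in 96-well plates. 2) Compound, 48 h, 5 concentrations. 3) Linear interpolation between surrounding doses. 4) Unreached endpoint = highest concentration. GI50 marks 50% less growth. TGI: concentration producing complete growth inhibition.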
Tests used:
Assay in all cases: inhibition of tumour cell growth, NCI panel, 48 h
[1] = system: KM12 colon
[2] = system: UO-31 renal
[3] = system: HCT-116 colon
[4] = system: IGROV1 ovarian
[5] = system: SK-MEL-28 melanoma
[6] = system: SNB-19 CNS
[7] = system: OVCAR-8 ovarian
[8] = system: UACC-62 melanoma
[9] = system: SN12C renal
[10] = system: NCI-H522 lung

Row | Compound | TGI [1] | TGI [2] | TGI [3] | TGI [4] | TGI [5] | TGI [6] | TGI [7] | TGI [8] | TGI [9] | TGI [10] | GI50 [1] | GI50 [2] | GI50 [3] | GI50 [4] | GI50 [5] | GI50 [10] | GI50 [6] | GI50 [8] | GI50 [9]
1 | Cc1cc(C)n(-c2nsc3ccccc23)n1 | > 100 µM | > 100 µM | > 100 µM | > 100 µM | > 100 µM | > 100 µM | > 100 µM | > 100 µM | > 100 µM |  |  |  |  |  |  |  |  |  | 
2 | CSc1nc(NC2OCC(O)C(O)C2O)c(N)c(=O)[nH]1 (configuration not stated) | > 100 µM | > 100 µM | > 100 µM | > 100 µM | > 100 µM | > 100 µM | > 100 µM | > 100 µM | > 100 µM | > 100 µM |  |  |  |  |  |  |  |  | 
3 | Brc1ccc(C2CC(c3cccc4ccccc34)=Nc3ccccc3S2)cc1 (configuration not stated) | > 100 µM | > 100 µM | > 100 µM | > 100 µM | > 100 µM | > 100 µM | > 100 µM | > 100 µM | > 100 µM | > 100 µM |  |  |  |  |  |  |  |  | 
4 | C/C(N=NS(=O)(=O)c1ccccc1)=C1\C=CC=CN1O | > 100 µM | > 100 µM | > 100 µM | > 100 µM | > 100 µM | > 100 µM | > 100 µM | > 100 µM | > 100 µM | > 100 µM |  |  |  |  |  |  |  |  | 
5 | CC(C)(C)[Si](C)(C)OCC1OC(n2cnc3c(N)ncnc32)CC1O (configuration not stated) | > 100 µM | > 100 µM | > 100 µM | > 100 µM | > 100 µM | > 100 µM | > 100 µM | > 100 µM | > 100 µM |  |  |  |  |  |  |  |  |  | 
6 | CC1CCC2(O)C3(C)CC4(O)OC2(C1O)C1(O)C3(O)C(OC(=O)c2ccc[nH]2)C(O)(C(C)C)C41C (configuration not stated) | > 100 µM | > 100 µM | > 100 µM | > 100 µM | > 100 µM | > 100 µM | > 100 µM | > 100 µM | > 100 µM | > 100 µM |  |  |  |  |  |  |  |  | 
7 | c1coc(CNc2ncnc3[nH]ncc23)c1 | > 100 µM | > 100 µM | > 100 µM | > 100 µM | > 100 µM | > 100 µM | > 100 µM | > 100 µM | > 100 µM | > 100 µM |  |  |  |  |  |  |  |  | 
8 | CC(=O)c1ccc2c(c1)c1c(C)c3c[n+](C)ccc3c(C)c1n2C | > 100 µM | > 23.7 µM | 18.8 µM | > 100 µM | 32.3 µM | 5.74 µM | 39.9 µM | 8.23 µM | 4.9 µM | > 100 µM |  |  |  |  |  |  |  |  | 
9 | NCCCOc1ccc([N+](=O)[O-])cc1Cl | > 100 µM | > 100 µM | > 100 µM | > 100 µM | > 100 µM | > 100 µM | > 100 µM | > 100 µM |  | 18.2 µM |  |  |  |  |  |  |  |  | 
10 | Fc1ccc(C2CC(c3cccc(Nc4ccncc4)c3)=NN2c2ccc(Cl)cc2)cc1 (configuration not stated) | 3.33 µM | 2.76 µM | 3.39 µM | 3.37 µM | 3.24 µM | 3.07 µM |  | 3.19 µM | 3.16 µM | 3.68 µM | 1.68 µM | 1.42 µM | 1.73 µM | 1.78 µM | 1.72 µM | 1.78 µM | 1.65 µM | 1.73 µM | 1.67 µM
11 | Cc1cc2c(cc1C)OC(=O)CC2 | > 100 µM | > 100 µM | > 100 µM | > 100 µM | > 100 µM |  | > 100 µM | > 100 µM | > 100 µM | > 100 µM |  |  |  |  |  |  |  |  | 
12 | OCCOCCN1CCN(CCCN2c3ccccc3Sc3ccc(C(F)(F)F)cc32)CC1 | 20.2 µM | 20.6 µM | 20.3 µM | 22.2 µM | 9.55 µM | 27.8 µM | 30 µM | 19.5 µM | 26.7 µM | 28.2 µM |  |  |  |  |  |  |  |  | 
13 | N#CN=[N+]([O-])c1ccc(C(=O)O)cc1 | > 100 µM | 30.3 µM |  | > 100 µM | 33.4 µM | 29.8 µM | 37.1 µM | 31.4 µM |  | 40.7 µM |  |  |  |  |  |  |  |  | 
14 | CC(=O)OCC1=C(C(=O)O)N2C(=O)C(NC(=O)CSc3ccncc3)C2SC1 (configuration not stated) | > 100 µM | > 100 µM | > 100 µM | > 100 µM | > 100 µM | > 100 µM | > 100 µM | > 100 µM | > 100 µM | > 100 µM |  |  |  |  |  |  |  |  | 
15 | CCN(CC)CCNc1ccc2nnn3c4ccc(C)cc4c(=O)c1c23 | 16.9 µM | 22.2 µM | 15 µM | 26.4 µM | 28.9 µM | 27.4 µM | 20.9 µM | 27.1 µM | 22.3 µM | 20.5 µM |  |  |  |  |  |  |  |  | 
16 | O=C1Nc2ccccc2C1=Nc1cccc2ncccc12 | > 100 µM | > 100 µM | > 100 µM | > 100 µM | > 100 µM | > 100 µM | > 100 µM | > 100 µM | > 100 µM | > 100 µM |  |  |  |  |  |  |  |  | 
